Where two headings read alike, the source gives them in different places.
Columns and labels:
[1] = Phase solubility study in pH 6.8 buffer (simulated intestinal fluid) and purified water; type: physicochemical; settings: for Solubility: Active content equivalent to base in pH 6.8 buffer / Solubility: Active content equivalent to base in purified water: ambient temperature (approx. 22° C.), shaken approx. 30 minutes
Protocol: In this study the solubility of Omeprazole Magnesium Trihydrate and Esomeprazole Magnesium Dihydrate active materials in pH 6.8 buffer and purified water was performed. […] A pH 6.8 buffer is prepared as described under the monograph of Omeprazole Delayed Release capsules for dissolution test in United States Pharmacopoeia. Purified water and pH 6.8 buffer were used at ambient temperature (approx. 22° C.).
Samples of actives and tablet dosage form powders were used in the study. Each sample contains approx. 200 mg base equivalent Omeprazole and Esomeprazole as salts and such samples were transferred in to a centrifuge tube containing 20 mL of appropriate medium. Centrifuge tubes containing these suspensions were shaken for approx. 30 minutes on a wrist action shaker and samples were initially filtered through Whatman filter paper and subsequently filtered through 0.45 micron PTFE cartridge filters. The samples were further diluted by pipetting 1.0 mL in to 100 mL volumetric flasks and made up to the volume with appropriate medium. The optical density values were measured using a suitable UV-Visible spectrophotometer at 275 nm wavelength.

[2] = 25° C., cited from earlier work
[3] = from commercially marketed dosage forms; cited from earlier work

COc1ccc2[n-]c([S@@+]([O-])Cc3ncc(C)c(OC)c3C)nc2c1.COc1ccc2[n-]c([S@@+]([O-])Cc3ncc(C)c(OC)c3C)nc2c1.O.O.[Mg+2] [Esomeprazole Magnesium Dihydrate]
Solubility: Active content equivalent to base in pH 6.8 buffer [1]: 1.17 mg/mL
fold increased solubility by the fluid bed process as compared to the active when tested alone ([1]; purified water): approx. 1.6 fold
Solubility: Active content equivalent to base in purified water ([1]; purified water): 5.02 mg/mL

Cc1c(OCC(F)(F)F)ccnc1C[S+]([O-])c1nc2ccccc2[nH]1 (stereo not shown) [Lansoprazole, 2-[[[3-methyl-4-(2,2,2-trifluroethoxy)-2-pyridyl]methyl]sulfinyl]benzimidazole]
degradation half-life in aqueous solution ([2]; pH 5.0): approximately 0.5 hour
degradation half-life in aqueous solution ([2]; pH 7.0): approximately 18 hours
percent bioavailability [3]: 80-85%

COc1ccc2[n-]c([S+]([O-])Cc3ncc(C)c(OC)c3C)nc2c1.COc1ccc2[n-]c([S+]([O-])Cc3ncc(C)c(OC)c3C)nc2c1.O.O.O.[Mg+2] (stereo not shown) [Omeprazole Magnesium Trihydrate]
fold increased solubility by the fluid bed process as compared to the active when tested alone ([1]; pH 6.8 buffer (simulated intestinal fluid)): 4 fold
Solubility: Active content equivalent to base in pH 6.8 buffer [1]: 0.31 mg/mL
fold increased solubility by the fluid bed process as compared to the active when tested alone ([1]; purified water): approx. 10 fold
Solubility: Active content equivalent to base in purified water ([1]; purified water): 0.26 mg/mL

COc1ccnc(C[S+]([O-])c2nc3ccc(OC(F)F)cc3[nH]2)c1OC (stereo not shown) [Pantoprazole]
percent bioavailability [3]: 77%

COCCCOc1ccnc(C[S+]([O-])c2nc3ccccc3[nH]2)c1C (stereo not shown) [Rabeprazole]
percent bioavailability [3]: 52%

COc1ccc2[nH]c([S+]([O-])Cc3ncc(C)c(OC)c3C)nc2c1 (stereo not shown) [omeprazole, 2-[2-(3,5-dimethyl-4-methoxy)-pyridylmethylsulfinyl]-(5-methoxy)-benzimidazole]
percent bioavailability [3]: 30-40%

From patent publication US20070026071A1, “Magnesium salt proton pump inhibitor dosage forms” (QPharma, LLC, priority 2005, published 2007)
